Assay results from patent publication US9169241B2, “Quinolinyloxyphenylsulfonamides” (Max-Planck-Gesellschaft Zur Forderung der Wissenschaften …, priority 2009, dated 2015).
pIC50: −log10 of the molar value. Read-outs that look alike come from different tables or passages of the source.

Key:
Format in all cases: cell-based
[1] = test system: SF763; test: Apoptosis assay (Cellomics, nucleus condensation); conditions: Table III, read-out: Apoptosis induction in SF763
In short: (§1)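 Apoptosis scored by automated microscopy of Hoechst-stained live nuclei, 24 and 48 h after treatment with 0.39–12.5 μM compound or DMSO.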

[2] = test system: C8161; test: Apoptosis assay (Cellomics, nucleus condensation); conditions: Homo sapiens, Table III, read-out: Apoptosis induction in C8161
In short: as §1

[3] = test system: U138; test: Apoptosis assay (Cellomics, nucleus condensation); conditions: Table III, read-out: Apoptosis induction in U138
In short: as §1

[4] = test system: viable cells in culture; test: Cell viability assay at 10 μM (CellTiter-Glo, Table VII); conditions: compound 10 μM, 72 h;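 further: graded A 0-20%; B 21-40%; C 41-60%; D over 60% viable cells relative to DMSO control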
In short: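 Viable cell number was measured with the CellTiter-Glo Luminescent Cell Viability Assay (Promega), following the manufacturer's protocol, which quantifies ATP as a marker of metabolically active cells. In 96-well plates, 1000 cells/well in 100 μl medium were exposed to compound at 10 μM, or to DMSO control, for 72 h. Values were calculated relative to DMSO-control ATP.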

[5] = Homo sapiens, HCT-116, HCT116 def, read-out: percentage (%) of viable cells HCT 116def
[6] = Homo sapiens, HCT-116, HCT116 wt, read-out: percentage (%) of viable cells HCT 116wt
[7] = Homo sapiens, HT-29, HT29, read-out: percentage (%) of viable cells HT29
[8] = Homo sapiens, NCI-H358, H358, read-out: percentage (%) of viable cells H358
[9] = Homo sapiens, NCI-H1650, H1650, read-out: percentage (%) of viable cells H1650
[10] = Homo sapiens, NCI-H1666, H1666, read-out: percentage (%) of viable cells H1666
[11] = Homo sapiens, NCI-H1975, H1975, read-out: percentage (%) of viable cells H1975
[12] = Homo sapiens, NCI-H1993, H1993, read-out: percentage (%) of viable cells H1993
[13] = Homo sapiens, A549, read-out: percentage (%) of viable cells A549
[14] = Homo sapiens, HCC827, read-out: percentage (%) of viable cells HCC827
[15] = Homo sapiens, SW480, read-out: percentage (%) of viable cells SW480
[16] = RKO, read-out: percentage (%) of viable cells RKO

COc1cc2c(Oc3c(Cl)cc(NS(=O)(=O)c4c(F)cccc4F)cc3Cl)ccnc2cc1OCCCN1CCN(C)CC1 [Example 88, N-(3,5-Dichloro-4-{6-methoxy-7-[3-(4-methyl-piperazin-1-yl)-propoxy]-quinolin-4-yloxy}-phenyl)-2,6-difluoro-benzenesulfonamide]
≥ 4.90: pIC50 [1] | pIC50 [2] | pIC50 [3]
0 to 20%: viability at 10 µM [4, 5] | viability at 10 µM [4, 8] | viability at 10 µM [4, 11] | viability at 10 µM [4, 12] | viability at 10 µM [4, 14]
41 to 60%: viability at 10 µM [4, 6] | viability at 10 µM [4, 9] | viability at 10 µM [4, 13] | viability at 10 µM [4, 16]
21 to 40%: viability at 10 µM [4, 7] | viability at 10 µM [4, 10] | viability at 10 µM [4, 15]

COc1cc2c(Oc3ccc(NS(=O)(=O)c4ccc(Cl)s4)cc3F)ccnc2cc1OCCCN1CCCC(C)C1 (stereo not drawn) [Example 63, 5-Chloro-thiophene-2-sulfonic acid (3-fluoro-4-{6-methoxy-7-[3-(3-methyl-piperidin-1-yl)-propoxy]-quinolin-4-yloxy}-phenyl)-amide]
21 to 40%: viability at 10 µM [4, 5] | viability at 10 µM [4, 7] | viability at 10 µM [4, 13] | viability at 10 µM [4, 14]
0 to 20%: viability at 10 µM [4, 6] | viability at 10 µM [4, 8] | viability at 10 µM [4, 11] | viability at 10 µM [4, 12] | viability at 10 µM [4, 15]
> 60%: viability at 10 µM [4, 16]
≥ 4.90: pIC50 [1] | pIC50 [2] | pIC50 [3]
41 to 60%: viability at 10 µM [4, 9] | viability at 10 µM [4, 10]

COc1cc2c(Oc3ccc(NS(=O)(=O)c4cccc(-c5ccccc5)c4)cc3F)ccnc2cc1OCCCN1CCCCC1 [Example 8, Biphenyl-3-sulfonic acid {3-fluoro-4-[6-methoxy-7-(3-piperidin-1-yl-propoxy)-quinolin-4-loxy]-phenyl}-amide]
≥ 4.90: pIC50 [1] | pIC50 [2]
21 to 40%: viability at 10 µM [4, 7] | viability at 10 µM [4, 10] | viability at 10 µM [4, 16]
4.30 to 4.90: pIC50 [3]
41 to 60%: viability at 10 µM [4, 13]
0 to 20%: viability at 10 µM [4, 5] | viability at 10 µM [4, 6] | viability at 10 µM [4, 8] | viability at 10 µM [4, 9] | viability at 10 µM [4, 11] | viability at 10 µM [4, 12] | viability at 10 µM [4, 14] | viability at 10 µM [4, 15]

COc1cc2c(Oc3ccc(NS(=O)(=O)c4ccccc4C(F)(F)F)cc3F)ccnc2cc1OCCCN1CCCCC1C (stereo not drawn) [Example 99, N-(3-Fluoro-4-{6-methoxy-7-[3-(2-methyl-piperidin-1-yl)-propoxy]-quinolin-4-yloxy}-phenyl)-2-trifluoromethyl-benzenesulfonamide]
21 to 40%: viability at 10 µM [4, 7] | viability at 10 µM [4, 9] | viability at 10 µM [4, 11] | viability at 10 µM [4, 12] | viability at 10 µM [4, 13] | viability at 10 µM [4, 16]
0 to 20%: viability at 10 µM [4, 6] | viability at 10 µM [4, 8] | viability at 10 µM [4, 15]
≥ 4.90: pIC50 [1] | pIC50 [2] | pIC50 [3]
41 to 60%: viability at 10 µM [4, 10] | viability at 10 µM [4, 14]
> 60%: viability at 10 µM [4, 5]

COc1cc2c(Oc3ccc(NS(=O)(=O)c4c(F)cccc4F)cc3F)ccnc2cc1OCCN1CCOCC1 [Example 82, 2,6-Difluoro-N-{3-fluoro-4-[6-methoxy-7-(2-morpholin-4-yl-ethoxy)-quinolin-4-yloxy]-phenyl}-benzenesulfonamide]
41 to 60%: viability at 10 µM [4, 10] | viability at 10 µM [4, 16]
0 to 20%: viability at 10 µM [4, 6] | viability at 10 µM [4, 7] | viability at 10 µM [4, 12]
> 60%: viability at 10 µM [4, 13]
≥ 4.90: pIC50 [1] | pIC50 [2] | pIC50 [3]
21 to 40%: viability at 10 µM [4, 5] | viability at 10 µM [4, 8] | viability at 10 µM [4, 9] | viability at 10 µM [4, 11] | viability at 10 µM [4, 14] | viability at 10 µM [4, 15]

COc1cc2c(Oc3ccc(NS(=O)(=O)c4cccc(Oc5ccccc5)c4)cc3F)ccnc2cc1OCCCN1CCCC(C)C1 (stereo not drawn) [Example 59, N-(3-Fluoro-4-{6-methoxy-7-[3-(3-methyl-piperidin-1-yl)-propoxy]-quinolin-4-yloxy}-phenyl)-3-phenoxy-benzenesulfonamide]
21 to 40%: viability at 10 µM [4, 8] | viability at 10 µM [4, 11] | viability at 10 µM [4, 13] | viability at 10 µM [4, 14]
≥ 4.90: pIC50 [1] | pIC50 [2] | pIC50 [3]
0 to 20%: viability at 10 µM [4, 5] | viability at 10 µM [4, 6] | viability at 10 µM [4, 7] | viability at 10 µM [4, 12] | viability at 10 µM [4, 15] | viability at 10 µM [4, 16]
41 to 60%: viability at 10 µM [4, 10]
> 60%: viability at 10 µM [4, 9]

COc1cc2c(Oc3cccc(NS(=O)(=O)c4ccccc4C(F)(F)F)c3)ccnc2cc1OCCCN1CCN(C)CC1 [Example 102, N-(3-{6-Methoxy-7-[3-(4-methyl-piperazin-1-yl)-propoxy]-quinolin-4-yloxy}-phenyl)-2-trifluoromethyl-benzenesulfonamide]
0 to 20%: viability at 10 µM [4, 5] | viability at 10 µM [4, 6] | viability at 10 µM [4, 7] | viability at 10 µM [4, 8] | viability at 10 µM [4, 15]
41 to 60%: viability at 10 µM [4, 9] | viability at 10 µM [4, 10] | viability at 10 µM [4, 13]
≥ 4.90: pIC50 [1] | pIC50 [2] | pIC50 [3]
21 to 40%: viability at 10 µM [4, 11] | viability at 10 µM [4, 12] | viability at 10 µM [4, 14] | viability at 10 µM [4, 16]

COc1cc2c(Oc3ccc(NS(=O)(=O)c4cccc(Oc5ccccc5)c4)cc3F)ccnc2cc1OCCCN1CCN(C)CC1 [Example 14, N-(3-Fluoro-4-{6-methoxy-7-[3-(4-methyl-piperazin-1-yl)-propoxy]-quinolin-4-yloxy}-phenyl)-3-phenoxy-benzenesulfonamide]
0 to 20%: viability at 10 µM [4, 6] | viability at 10 µM [4, 7] | viability at 10 µM [4, 12] | viability at 10 µM [4, 15] | viability at 10 µM [4, 16]
21 to 40%: viability at 10 µM [4, 5] | viability at 10 µM [4, 8] | viability at 10 µM [4, 9] | viability at 10 µM [4, 11] | viability at 10 µM [4, 14]
41 to 60%: viability at 10 µM [4, 10] | viability at 10 µM [4, 13]
≥ 4.90: pIC50 [1] | pIC50 [2] | pIC50 [3]

COc1cc2c(Oc3ccc(NS(=O)(=O)c4c(Cl)cccc4Cl)cc3F)ccnc2cc1OCCCN1CCN(C)CC1 [Example 32, 2,6-Dichloro-N-(3-fluoro-4-{6-methoxy-7-[3-(4-methyl-piperazin-1-yl)-propoxy]-quinolin-4-yloxy}-phenyl)-benzenesulfonamide]
0 to 20%: viability at 10 µM [4, 6] | viability at 10 µM [4, 7] | viability at 10 µM [4, 8] | viability at 10 µM [4, 12]
≥ 4.90: pIC50 [1] | pIC50 [2] | pIC50 [3]
41 to 60%: viability at 10 µM [4, 10] | viability at 10 µM [4, 13] | viability at 10 µM [4, 14]
21 to 40%: viability at 10 µM [4, 5] | viability at 10 µM [4, 9] | viability at 10 µM [4, 11] | viability at 10 µM [4, 15] | viability at 10 µM [4, 16]

COc1cc2c(Oc3ccc(NS(=O)(=O)c4ccccc4C(F)(F)F)cc3F)ccnc2cc1OCCCNC1CCOCC1 [Example 95, N-(3-Fluoro-4-{6-methoxy-7-[3-(tetrahydro-pyran-4-ylamino)-propoxy]-quinolin-4-yloxy}-phenyl)-2-trifluoromethyl-benzenesulfonamide]
> 60%: viability at 10 µM [4, 13]
≥ 4.90: pIC50 [1] | pIC50 [2] | pIC50 [3]
0 to 20%: viability at 10 µM [4, 7] | viability at 10 µM [4, 8] | viability at 10 µM [4, 11] | viability at 10 µM [4, 12] | viability at 10 µM [4, 15] | viability at 10 µM [4, 16]
21 to 40%: viability at 10 µM [4, 5] | viability at 10 µM [4, 6] | viability at 10 µM [4, 9] | viability at 10 µM [4, 10] | viability at 10 µM [4, 14]

COc1cc2c(Oc3ccc(NS(=O)(=O)c4ccccc4[N+](=O)[O-])cc3F)ccnc2cc1OCCCN1CCCCC1 [Example 7, N-{3-Fluoro-4-[6-methoxy-7-(3-piperidin-1-yl-propoxy)-quinolin-4-yloxy]-phenyl}-2-nitro-benzenesulfonamide]
21 to 40%: viability at 10 µM [4, 5] | viability at 10 µM [4, 10] | viability at 10 µM [4, 11] | viability at 10 µM [4, 12]
41 to 60%: viability at 10 µM [4, 13]
0 to 20%: viability at 10 µM [4, 6] | viability at 10 µM [4, 7] | viability at 10 µM [4, 8] | viability at 10 µM [4, 9] | viability at 10 µM [4, 14] | viability at 10 µM [4, 15] | viability at 10 µM [4, 16]
≥ 4.90: pIC50 [1] | pIC50 [2] | pIC50 [3]
